According to patent US9655887B2, “Pharmaceutical composition and the use thereof, and application regime of said pharmaceutical composition for on-demand contraception” (BAYER PHARMA AKTIENGESELLSCHAFT, priority 2013, dated 2017):

Key:
[1] = target: EP4 subtype of the human PGE2 receptor (hEP4) (Homo sapiens, UniProt P35408); assay: cAMP antagonism test, human prostaglandin E2 (subtype EP4) receptor signal; assay type: cell-based; conditions: selectivity towards hEP4, IC50 measured by cAMP antagonism test
Source text: 2. Detection of Antagonism to the Human Prostaglandin E2 (Subtype EP4) Receptor Signal
(§1) The binding of PGE2 to the EP4 subtype of the human PGE2 receptor induces the activation of membrane-located adenylate cyclases and leads to the formation of cAMP. In the presence of the phosphodiesterase inhibitor IBMX, the cAMP accumulated owing to this stimulation and released by cell lysis is used in a competitive detection method. In this test, the cAMP present in the lysate competes with a fluorescence-labelled cAMP (cAMP-d2) for binding to an Eu cryptate-labelled anti-cAMP antibody.
(§2) In the absence of cellular cAMP a maximal signal is produced, which is attributable to the binding of this cAMP-d2 molecule to the antibody. After excitation of the […] at 337 nm, there is a fluorescence resonance energy transfer (FRET) to the Eu cryptate molecules of the anti-cAMP antibody (labelled therewith), followed by a long-lasting emission signal at 665 nm (and at […]). Both signals are measured in a suitable measurement instrument with a time delay, i.e. after decay of the background fluorescence. Any increase in the low FRET signal caused by prostaglandin E2 administration (measured as well ratio change=emission665nm/emission620nm*10000) indicates the action of antagonists.
2.2.1. Test for Antagonism (Data Per Well of a 384-Well Plate):
(§3) To a test plate with the substance solutions already added (0.05 μl; 100% DMSO, concentration range from 0.8 nM-16.5 uM) were added 4 μl of a cAMP-d2/cell suspension (312500 cells/ml). After a 20-minute preincubation at room temperature (RT), 2 μl of a 3×PGE2 solution (0.3 nM, in PBS-IBMX) were added and incubated in the presence of the agonist for a further 60 mins at RT (volume: ˜6 μl). Next the reaction was stopped by addition of 2 μl of lysis buffer and incubated for a further 20 mins at RT before the actual measurement (volume: ˜8 μl).

human PGD receptor (hDP) = target: T1, human PGD receptor (hDP) (Homo sapiens, UniProt Q13258); assay: cAMP antagonism test, human prostaglandin D receptor signal; assay type: cell-based; conditions: selectivity towards hDP, IC50 measured by cAMP antagonism test
T1 sequence (Q13258 1-359): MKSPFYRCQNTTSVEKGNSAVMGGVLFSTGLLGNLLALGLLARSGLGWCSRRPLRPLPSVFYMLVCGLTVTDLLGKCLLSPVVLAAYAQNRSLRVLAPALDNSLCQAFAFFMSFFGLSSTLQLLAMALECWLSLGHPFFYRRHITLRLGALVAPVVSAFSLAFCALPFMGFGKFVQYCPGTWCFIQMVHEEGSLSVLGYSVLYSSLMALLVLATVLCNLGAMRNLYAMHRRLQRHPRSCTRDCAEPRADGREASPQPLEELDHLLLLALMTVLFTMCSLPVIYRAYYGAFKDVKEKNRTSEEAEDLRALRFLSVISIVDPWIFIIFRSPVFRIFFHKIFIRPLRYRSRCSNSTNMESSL
Source text: 3. Detection of Antagonism to the Human Prostaglandin D Receptor Signal
as §1, with “of prostaglandin D2” for “of PGE2”, “the” for “the EP4 subtype of the”, “human PGD” for “human PGE2”
as §2, with “cellular cAMP,” for “cellular cAMP”
3.2.1. Test for Antagonism (Data Per Well of a 384-Well Plate):
as §3, with “nM)” for “uM)”, “(625000” for “(312500”, “3×PGD2” for “3×PGE2”, “(6” for “(0.3”, “30” for “60”

ovulation = conditions: cited from earlier work

Chain of EP4 subtype of the human PGE2 receptor (hEP4) (P35408 whole entry): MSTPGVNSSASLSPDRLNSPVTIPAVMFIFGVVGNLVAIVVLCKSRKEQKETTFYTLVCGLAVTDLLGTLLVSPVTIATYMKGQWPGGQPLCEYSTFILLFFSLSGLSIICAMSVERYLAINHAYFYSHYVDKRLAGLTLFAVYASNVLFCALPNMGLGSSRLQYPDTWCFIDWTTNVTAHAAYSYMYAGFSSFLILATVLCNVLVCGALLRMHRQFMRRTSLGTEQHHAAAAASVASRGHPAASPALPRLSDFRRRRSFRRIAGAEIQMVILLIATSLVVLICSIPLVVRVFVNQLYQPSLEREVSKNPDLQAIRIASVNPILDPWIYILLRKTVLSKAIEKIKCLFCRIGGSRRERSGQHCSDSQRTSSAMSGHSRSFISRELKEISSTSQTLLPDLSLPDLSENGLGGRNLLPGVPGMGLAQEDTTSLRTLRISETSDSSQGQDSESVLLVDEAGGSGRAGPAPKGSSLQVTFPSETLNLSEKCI

## COC(C)CNC(=O)c1ccc2nn(CC3CN(C(=O)c4ccc(Cl)cc4)C3)cc2c1C (single isomer, unassigned) [Example 140, (S or R)-2-{[1-(4-chlorobenzoyl)azetidin-3-yl]methyl}-N-(2-methoxypropyl)-4-methyl-2H-indazole-5-carboxamide]
[1]
  Selectivity hEP2/hEP4: xxx (xxx >100)
Human PGD receptor (hDP)
  Selectivity hEP2/hDP: xxx (xxx >100)

## Cc1c(C(=O)NCC2COCCO2)ccc2nn(CC3CN(C(=O)c4ccc(Cl)cc4)C3)cc12 (single isomer, unassigned) [Example 143, (S or R)-2-{[1-(4-chlorobenzoyl)azetidin-3-yl]methyl}-N-(1,4-dioxan-2-yl-methyl)-4-methyl-2H-indazole-5-carboxamide]
[1]
  Selectivity hEP2/hEP4: xxx (xxx >100)
Human PGD receptor (hDP)
  Selectivity hEP2/hDP: xxx (xxx >100)

## Cc1c(C(=O)NCC2CCCCO2)ccc2nn(CC3CN(C(=O)c4ccc(Cl)cc4)C3)cc12 (single isomer, unassigned) [Example 145, (R or S)-2-{[1-(4-chlorobenzoyl)azetidin-3-yl]methyl}-4-methyl-N-(3,4,5,6-tetrahydro-2H-pyran-2-ylmethyl)-2H-indazole-5-carboxamide]
[1]
  Selectivity hEP2/hEP4: xxx (xxx >100)
Human PGD receptor (hDP)
  Selectivity hEP2/hDP: xxx (xxx >100)

## Cc1c(C(=O)NCC2CCCCO2)ccc2nn(CC3CN(C(=O)c4ccc(Cl)cc4)C3)cc12 (single isomer, unassigned) [Example 146, (S or R)-2-{[1-(4-chlorobenzoyl)azetidin-3-yl]methyl}-4-methyl-N-(3,4,5,6-tetrahydro-2H-pyran-2-ylmethyl)-2H-indazole-5-carboxamide]
[1]
  Selectivity hEP2/hEP4: xxx (xxx >100)
Human PGD receptor (hDP)
  Selectivity hEP2/hDP: xxx (xxx >100)

## Cc1c(C(=O)NCC(C)OC2CCC2)ccc2nn(CC3CN(C(=O)c4ccc(Cl)cc4)C3)cc12 (single isomer, unassigned) [Example 155, (S or R)-2-{[1-(4-chlorobenzoyl)azetidin-3-yl]methyl}-N-[2-(cyclobutyloxy)-propyl]-4-methyl-2H-indazole-5-carboxamide]
[1]
  Selectivity hEP2/hEP4: xxx (xxx >100)
Human PGD receptor (hDP)
  Selectivity hEP2/hDP: xxx (xxx >100)

## Cc1c(C(=O)NCC2CCCCO2)ccc2nn(CC3CCN(C(=O)c4ccc(Cl)cc4)CC3)cc12 (single isomer, unassigned) [Example 240, (R or S)-2-{[1-(4-chlorobenzoyl)piperidin-4-yl]methyl}-4-methyl-N-(3,4,5,6-tetrahydro-2H-pyran-2-ylmethyl)-2H-indazole-5-carboxamide]
[1]
  Selectivity hEP2/hEP4: xxx (xxx >100)
Human PGD receptor (hDP)
  Selectivity hEP2/hDP: xxx (xxx >100)

## Cc1c(C(=O)NCC2CCCCO2)ccc2nn(CC3CCN(C(=O)c4ccc(Cl)cc4)CC3)cc12 (single isomer, unassigned) [Example 241, (S or R)-2-{[1-(4-chlorobenzoyl)piperidin-4-yl]methyl}-4-methyl-N-(3,4,5,6-tetrahydro-2H-pyran-2-ylmethyl)-2H-indazole-5-carboxamide]
[1]
  Selectivity hEP2/hEP4: xxx (xxx >100)
Human PGD receptor (hDP)
  Selectivity hEP2/hDP: xxx (xxx >100)

## Cc1c(C(=O)NCC2COCCO2)ccc2nn(CC3CCN(C(=O)c4ccc(Cl)cc4)CC3)cc12 (single isomer, unassigned) [Example 415, (S or R)-2-{[1-(4-chlorobenzoyl)piperidin-4-yl]methyl}-N-(1,4-dioxan-2-yl-methyl)-4-methyl-2H-indazole-5-carboxamide]
[1]
  Selectivity hEP2/hEP4: xxx (xxx >100)
Human PGD receptor (hDP)
  Selectivity hEP2/hDP: xxx (xxx >100)

## Cc1c(C(=O)NCC2CCCCO2)ccc2nn(CC3CCN(C(=O)c4ccc(Oc5ccc(C(F)(F)F)cc5)cc4)CC3)cc12 (single isomer, unassigned) [Example 416, (R or S)-4-methyl-N-(3,4,5,6-tetrahydro-2H-pyran-2-ylmethyl)-2-[(1-{4-[4-(trifluoromethyl)phenoxy]benzoyl}piperidin-4-yl)methyl]-2H-indazole-5-carboxamide]
[1]
  Selectivity hEP2/hEP4: xxx (xxx >100)
Human PGD receptor (hDP)
  Selectivity hEP2/hDP: xxx (xxx >100)

## Cc1c(C(=O)NCC2CCCCO2)ccc2nn(CC3CCN(C(=O)c4ccc(Oc5ccc(C(F)(F)F)cc5)cc4)CC3)cc12 (single isomer, unassigned) [Example 417, (S or R)-4-methyl-N-(3,4,5,6-tetrahydro-2H-pyran-2-ylmethyl)-2-[(1-{4-[4-(trifluoromethyl)phenoxy]benzoyl}piperidin-4-yl)methyl]-2H-indazole-5-carboxamide]
[1]
  Selectivity hEP2/hEP4: xxx (xxx >100)
Human PGD receptor (hDP)
  Selectivity hEP2/hDP: xxx (xxx >100)

## Cc1c(C(=O)NCC2COCCO2)ccc2nn(CC3CCN(C(=O)c4ccc(Oc5ccc(C(F)(F)F)cc5)cc4)CC3)cc12 (single isomer, unassigned) [Example 418, (R or S)—N-(1,4-dioxan-2-ylmethyl)-4-methyl-2-[(1-{4-[4-(trifluoromethyl)-phenoxy]benzoyl}piperidin-4-yl)methyl]-2H-indazole-5-carboxamide]
[1]
  Selectivity hEP2/hEP4: xxx (xxx >100)
Human PGD receptor (hDP)
  Selectivity hEP2/hDP: xxx (xxx >100)

## Cc1c(C(=O)NCC2COCCO2)ccc2nn(CC3CCN(C(=O)c4ccc(Oc5ccc(C(F)(F)F)cc5)cc4)CC3)cc12 (single isomer, unassigned) [Example 419, (R or S)—N-(1,4-dioxan-2-ylmethyl)-4-methyl-2-[(1-{4-[4-(trifluoromethyl)-phenoxy]benzoyl}piperidin-4-yl)methyl]-2H-indazole-5-carboxamide]
[1]
  Selectivity hEP2/hEP4: xxx (xxx >100)
Human PGD receptor (hDP)
  Selectivity hEP2/hDP: xxx (xxx >100)

## Cc1ccc(-c2cc(C(F)(F)F)nn2-c2ccc(S(N)(=O)=O)cc2)cc1 [celecoxib, 4-[5-(4-methylphenyl)-3-(trifluoromethyl)-1H-pyrazol-1-yl]benzenesulphonamide]
ovulation; daily administration of 400 mg over the entire cycle, increased from 27.2+/−2.4 days (Edelmann et al. 2010)
  cycle length: 28.5 ± 2.5 days
ovulation; daily oral administration of 400 mg, depending on time and duration of administration (Edelmann et al. 2013)
  increase in ovulatory dysfunction: 25-30%

## CS(=O)(=O)c1ccc(C2=C(c3ccccc3)C(=O)OC2)cc1 [rofecoxib, 4-(4-mesylphenyl)-3-phenylfuran-2(5H)-one]
ovulation; 25 mg on 9 successive days, in 4 of 6 patients (Pall et al.)
  delay of ovulation: more than 48 hours
